We go through 5 compounds from US20160311826A1, “SGC STIMULATORS” (IRONWOOD PHARMACEUTICALS, INC., priority 2013, published 2016).

The target in assay [1] is T1, soluble guanylate cyclase (sGC) (Homo sapiens, UniProt Q02108+Q02153).
T1 construct: endogenously expressing soluble guanylate cyclase (sGC); endogenous in cells; host or cells: HEK293
T1 sequence (Q02153 1-619): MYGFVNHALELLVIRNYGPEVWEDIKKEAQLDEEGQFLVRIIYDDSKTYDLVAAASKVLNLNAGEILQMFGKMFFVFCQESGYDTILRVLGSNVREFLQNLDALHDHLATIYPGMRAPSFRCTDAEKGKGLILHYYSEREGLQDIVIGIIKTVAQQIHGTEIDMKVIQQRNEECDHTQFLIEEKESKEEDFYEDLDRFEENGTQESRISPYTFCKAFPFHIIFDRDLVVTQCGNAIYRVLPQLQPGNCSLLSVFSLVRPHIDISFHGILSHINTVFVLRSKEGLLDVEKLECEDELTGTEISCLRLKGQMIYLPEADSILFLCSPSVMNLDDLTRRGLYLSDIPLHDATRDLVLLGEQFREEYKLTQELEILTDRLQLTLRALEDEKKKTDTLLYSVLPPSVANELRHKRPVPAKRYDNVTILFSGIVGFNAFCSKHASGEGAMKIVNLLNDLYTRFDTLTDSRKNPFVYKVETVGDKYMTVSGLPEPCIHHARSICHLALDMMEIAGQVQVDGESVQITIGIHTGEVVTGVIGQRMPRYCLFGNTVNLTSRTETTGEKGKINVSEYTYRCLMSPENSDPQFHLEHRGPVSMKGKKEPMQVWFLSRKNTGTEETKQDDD
T1 sequence (Q02108 1-690): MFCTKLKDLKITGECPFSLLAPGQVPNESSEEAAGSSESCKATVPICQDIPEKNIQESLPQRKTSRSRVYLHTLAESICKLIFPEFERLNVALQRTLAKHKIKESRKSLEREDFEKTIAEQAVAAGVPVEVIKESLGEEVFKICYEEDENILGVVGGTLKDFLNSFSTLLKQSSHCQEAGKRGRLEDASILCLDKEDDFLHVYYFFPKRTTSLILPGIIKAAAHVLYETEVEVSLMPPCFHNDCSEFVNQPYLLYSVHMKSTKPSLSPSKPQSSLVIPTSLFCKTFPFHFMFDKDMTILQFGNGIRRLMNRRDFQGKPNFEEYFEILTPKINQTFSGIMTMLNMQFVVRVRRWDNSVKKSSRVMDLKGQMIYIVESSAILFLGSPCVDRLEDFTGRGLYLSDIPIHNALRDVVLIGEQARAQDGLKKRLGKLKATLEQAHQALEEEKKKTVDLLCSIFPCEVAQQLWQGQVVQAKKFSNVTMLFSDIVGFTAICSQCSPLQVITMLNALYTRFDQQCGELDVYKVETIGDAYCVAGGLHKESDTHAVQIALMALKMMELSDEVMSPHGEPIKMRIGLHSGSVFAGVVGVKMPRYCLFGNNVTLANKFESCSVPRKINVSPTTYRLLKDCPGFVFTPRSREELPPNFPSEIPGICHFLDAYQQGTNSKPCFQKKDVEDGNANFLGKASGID
The assay is described as follows: sGC-HEK-cGMP assay with LC/MS detection. It counts as cell-based. The note with it: HEK293 cells, 10 μM DETA-NONOate; concentration eliciting 50% of high control response (30 μM Compound Y); read-out: sGC_HEK_LC MS EC50 Abs. As to the method: Human embryonic kidney cells (HEK293), endogenously expressing soluble guanylate cyclase (sGC), were used to evaluate the activity of test compounds. Compounds stimulating the sGC enzyme should cause an increase in the intracellular concentration of cGMP. HEK 293 cells were seeded in Dulbecco's Modification of Eagle's Medium supplemented with fetal bovine serum (10% final) and penicillin (100 U/mL)/streptomycin (100 ug/mL) in a […] at a density of 1.5×10^4 cells/well in a poly-D-lysine coated 384 well flat bottom plate. Cells were incubated overnight at 37° C. in a humidified chamber with 5% CO2. Medium was aspirated and cells were washed with 1× Hank's Buffered Saline Salt Solution […]. Cells were then incubated for 15 minutes at 37° C. with 50 μL of a 0.5 mM 3-isobutyl-1-methylxanthine (IBMX) solution. Test article and Diethylenetriamine NONOate (DETA-NONOate) solutions (x μM concentration for test article solution and 10 μM concentration for DETA-NONOate solution; wherein x is one of the following concentrations);
were then added to the assay mixture and the resulting mixture incubated at 37° C. for 20 minutes. After the 20 minute incubation, the assay mixture was aspirated and 10% acetic acid containing 150 ng/mL+3-cGMP (internal standard for LCMS) (50 μL) was added to the cells. The plate was incubated at 4° C. for 30 minutes in the acetic acid solution to stop the reaction and lyse the cells. The plates were then centrifuged at 1,000g for 3 minutes at 4° C. and the supernatant transferred to a clean reaction plate for LCMS analysis.
cGMP concentrations were determined from each sample using the LCMS conditions below (Table 2) and calculated standard curve. The standard curve was prepared in 10% acetic acid with 150 ng/mL+3cGMP (isotopically labelled cGMP with a weight 3 units higher than wild type) with the following final concentrations of cGMP in ng/mL: 1, 5, 10, 50, 100, 250, 500, 1000, 2000.
Data were normalized to a high control using the following equation: 100*(Sample−Low Control)/(High Control−Low Control), where the low control is the average of 16 samples treated with 1% DMSO, and the high control is the average of 16 samples treated with 30 μM of Compound Y depicted below. Data were fit using a 4-parameter fit (log(agonist) vs. response−variable slope) using GraphPad Prism Software v.5. n=2 for all compounds. The Absolute EC50 was interpolated from the curve fit and is defined as the concentration at which a given compound elicits 50% of the high control response. Compounds failing to elicit a minimum response of 50% are reported as >30 μM. For compounds run in duplicate or n higher than 2, the result herein given is the geometric mean of the several results obtained.
Code definitions for the whole cell HEK assay values, expressed as Absolute EC50 which is defined as the concentration at which a given compound elicits 50% of the high control response (Compound Y). Compounds failing to elicit a minimum response of 50% are reported as *.

Assay [2] has as its target T2, human recombinant soluble guanylate cyclase enzyme α1β1 (h sGC) (Homo sapiens, UniProt Q02108+Q02153).
T2 construct: purchased Enzo Life Sciences ALX-201-177
T2 sequence (Q02108 1-690): T1 sequence (Q02108 1-690)
T2 sequence (Q02153 1-619): T1 sequence (Q02153 1-619)
The assay is described as follows: Purified human recombinant sGC α1β1 enzyme assay in the presence of DETA-NONOate (cGMP HTRF). Type of assay: biochemical. The note with it: 30 uM DETA NONOate; concentration eliciting 50% of high control response (30 uM Compound Y); read-out: sGC_Enz_HTRF_a1b1 EC50 Abs. As for the experimental part:
Purified human recombinant soluble guanylate cyclase enzyme α1β1 (h sGC) obtained from Enzo Life Sciences (P/N: ALX-201-177) was used to evaluate the activity of test compounds. The assay reactions contained 0.1 M Tris (pH 8.0), 0.5 mg/mL BSA, 2 mM DTT, 4 mM MgCl2, 30 uM DETA NONOate (Enzo Life Science P/N: ALX-430-014), and 12.5 ng/ml human soluble guanylate cyclase enzyme. […] Guanosine 5′-triphosphate (Sigma-Aldrich P/N: G8877) was added to a final concentration of 300 μM and enzyme reactions were incubated (100 μL, 384-well plate format) at 37° C. for 20 minutes. The controls contained 3% DMSO (low control), or 30 uM of Compound Y (high control). After the 20 minute incubation, the reaction was stopped with the addition of 100 μL of ice cold 20% acetic acid.
cGMP concentrations in all samples were determined using the cGMP HTRF (Cisbio P/N: 62GM2PEC) assay per manufacturer's instructions. A cGMP standard curve was fit using a 4-parameter fit (log(inhibitor) vs. response—variable slope) using GraphPad Prism Software v.6. Samples were diluted appropriately to ensure that values fell within the linear range of the standard curve. The EC50 was interpolated from the curve fit and is defined as the concentration at which the compound elicits 50% of the maximal response of the 30 uM of Compound Y, the high control compound.
(In general: TR-FRET usually uses a lanthanide donor and a delayed reading to cut background.)

Assay [3] relates to Guinea pig tracheal smooth muscle (GPTSM) contraction. The experiment in a line: Electrical field stimulated guinea pig tracheal smooth muscle contraction (ex vivo). As to conditions: sub-maximal EFS, cumulative dose response curve, three animals pooled; read-out: IC50, inhibition of EFS-induced tracheal smooth muscle contraction. As to the method:
Electrical Field Stimulated Guinea Pig Tracheal Smooth Muscle In Vitro (ex vivo) model for the Assessment of Bronchodilation.
It is possible to assess the bronchodilating effects of sGC stimulators by using the system described below. […]
On each experimental day, a guinea pig is killed by exposure to a rising concentration of CO2 and the trachea removed. […] Tissues are washed with Kreb's buffer and stimulated using the previously determined sub-maximal voltage for 1 hour to establish a stable baseline contraction prior to assessment of compound activity.
A cumulative dose response curve (DRC) to each test substance is then performed and changes in smooth muscle contraction measured. The effect of each test substance in each experiment is expressed as a percentage inhibition of the baseline contraction, normalized to the relevant vehicle controls. […] The data from all three experiments are pooled, the DRC plotted, and the test substance potency and efficacy determined.

Assay [4] has as its system sickle cell disease patients with VOE. As to conditions: cited from earlier work.

On to `CCOC(=O)C1(C)C(=O)Nc2nc(-c3cc(OC)n(Cc4ccccc4F)n3)nc(N)c21` (stereo not shown) [Compound I-1, ethyl 4-amino-2-(1-(2-fluorobenzyl)-5-methoxy-1H-pyrazol-3-yl)-5-methyl-6-oxo-6,7-dihydro-5H-pyrrolo[2,3-d]pyrimidine-5-carboxylate], for which the values for the EC50 in assay [1] and in assay [2] were below 0.1 µM and below 2 µM, respectively.

As for `COc1nc(-c2ncc(F)c(O)n2)nn1Cc1ccccc1F` [Compound I-3], the EC50 in assay [1] and in assay [2] was above 30 µM throughout.

For `CC(C)Oc1cc(-c2nc(N)c3c(n2)NC(=O)C3(C)C(N)=O)nn1Cc1ccccc1F` (stereo not shown) [Compound I-39, 4-amino-2-(5-isopropoxy-1-(2-fluorobenzyl)-1H-pyrazol-3-yl)-5-methyl-6-oxo-6,7-dihydro-5H-pyrrolo[2,3-d]pyrimidine-5-carboxamide], the EC50 in assay [1] is above 30 µM; in assay [2] it was above 5 µM.

Turning to `CC(C)[N+]1(C)[C@@H]2CC[C@H]1C[C@@H](OC(=O)C(CO)c1ccccc1)C2` (stereo partly shown) [Ipratropium bromide], the concentration for half-maximal inhibition (IC50) in assay [3] came out at 0.00086 µM.

As to nitric oxide [inhaled NO], in assay [4] (randomized placebo controlled trial, acute VOE, adult patients, compared with placebos), the “use of parenteral morphine” value was “trend towards decreased use of parenteral morphine”. Also, in assay [4] (randomized placebo controlled trial, acute VOE, adult patients), the pain scores result is “significantly reduced pain scores”. Besides, in assay [4] (sickle cell disease children presenting with VOE), the “pain scores, analgesic requirements, hospital stay” value was “trends toward lower pain scores, decreased analgesic requirements and a shorter hospital stay”.

The EC50 is the concentration at which the effect is half-maximal. A word on the IC50: it is the midpoint of a concentration-inhibition curve.
